Here are results for one compound from ChEMBL document CHEMBL5523667, “Blood-stage antimalarial activity, favourable metabolic stability and in vivo toxicity of novel piperazine linked 7-chloroquinoline-triazole conjugates” (Eur J Med Chem, 2024).

Activity calls are given as the source filed them. The calls are words filed in the database; no cut-off is given here.

Series [1] concerns Plasmodium falciparum. The series can be described thus: Antimalarial activity against synchronized-ring stage chloroquine-sensitive Plasmodium falciparum 3D7 assessed as reduction in parasitemia measured upto 60 hrs post-treatment by Giemsa staining based light microscopic analysis (reference value: 3.9 %). In kind it is functional. On the set-up: scale not given: the % may be the effect or the level left.

Series [2] deals with Plasmodium falciparum. The series can be described thus: Antimalarial activity against schizont stage chloroquine-sensitive Plasmodium falciparum 3D7 assessed as growth inhibition incubated with compound for 6 hrs and measured 72 hrs post invasion by SYBR Green dye based analysis. Type of series: functional, organism-based.
Series [3] in a line: Stability of the compound in simulated gastric fluid at pH 1.2 at 1 uM measured after 120 mins by LC-MS/MS analysis. Type of series: ADME. Particulars: simulated gi fluid, pH 1.2, 2 h.
The target in series [4] is T1, Falcipain 2 (Plasmodium falciparum, UniProt Q9N6S8).
T1 sequence (Q9N6S8 whole entry): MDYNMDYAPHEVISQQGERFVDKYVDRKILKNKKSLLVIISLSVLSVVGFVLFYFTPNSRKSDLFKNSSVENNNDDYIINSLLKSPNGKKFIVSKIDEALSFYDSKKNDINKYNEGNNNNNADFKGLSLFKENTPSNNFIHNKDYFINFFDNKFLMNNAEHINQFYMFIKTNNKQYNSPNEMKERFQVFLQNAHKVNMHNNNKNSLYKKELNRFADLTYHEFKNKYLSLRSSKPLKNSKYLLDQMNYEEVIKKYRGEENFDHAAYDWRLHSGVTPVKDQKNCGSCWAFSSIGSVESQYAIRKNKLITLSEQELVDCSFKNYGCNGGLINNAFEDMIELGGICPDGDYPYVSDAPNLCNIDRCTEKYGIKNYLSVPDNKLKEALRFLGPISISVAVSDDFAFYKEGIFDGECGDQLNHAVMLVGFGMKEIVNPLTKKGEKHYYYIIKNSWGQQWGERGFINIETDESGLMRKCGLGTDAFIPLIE
The series can be described thus: Inhibition of N-terminal 6His-tagged recombinant Plasmodium falciparum FP2 expressed in Escherichia coli M15 using Z-Phe-Arg-AMC as substrate measured after 30 mins by microplate reader analysis.

Series [5] concerns the target T1, Falcipain 2. Description: Binding affinity to N-terminal 6His-tagged recombinant Plasmodium falciparum FP2 expressed in Escherichia coli M15 assessed as dissociation constant by surface plasmon resonance analysis.
In series [6] the test system is Plasmodium berghei. The series can be described thus: Antimalarial activity against Plasmodium berghei ANKA infected in female BALB/c mouse assessed as survival at 50 to 100 mg/kg, ip. Type of series: functional. The note with it: dose 50-100 mg/kg.
Series [7] in a line: Cytotoxicity against CHO cells assessed as reduction in cell viability by MTT assay. In kind it is toxicity, cell-based. The note with it: Chinese hamster (Cricetulus griseus).
The test system of series [8] is Plasmodium berghei. The series can be described thus: Antimalarial activity against Plasmodium berghei ANKA infected in BALB/c mouse assessed as increase in survival at 50 to 100 mg/kg, ip p preadministered with phenylhydrazine for 3 days followed by compound administration and measured after 5 days. Type of series: functional, organism-based. The note with it: dose 50-100 mg/kg, time 5.0 day.

For series [9], the system named is Plasmodium falciparum. Description: Antimalarial activity against trophozoite stage chloroquine-sensitive Plasmodium falciparum 3D7 assessed as growth inhibition incubated with compound for 6 hrs and measured 72 hrs post invasion by SYBR Green dye based analysis. In kind it is functional, organism-based.
Series [10] concerns Plasmodium falciparum. Description: Antimalarial activity against schizont stage Plasmodium falciparum infected in erythrocytes assessed as decrease in falcipain-mediated substrate hydrolysis by measuring reduction in fluorescence intensity of the fluorogenic peptide at 5 uM pre-incubated for 1 hr followed by Z-Phe-Arg-AMC substrate addition and measured after 5 to 10 mins by confocal microscopic analysis. Type of series: functional, organism-based. Particulars: Erythrocyte, time 65-70 min.

Series [11] has as its system Plasmodium berghei. Description: Antimalarial activity against Plasmodium berghei ANKA infected in BALB/c mouse assessed as reduction in gametocyte development at 50 to 100 mg/kg, ip preadministered with phenylhydrazine for 3 days followed by compound administration and measured after 4 days by Giemsa staining based light microscopic analysis. Type of series: functional, organism-based. The note with it: dose 50-100 mg/kg, time 4.0 day.

Series [12] is described as follows: Metabolic stability in mouse liver S9 fraction assessed as intrinsic clearance at 2 uM measured for 90 mins by LC-MS/MS analysis. Type of series: ADME, subcellular. Particulars: read-out: CLH.
Series [13] deals with Plasmodium falciparum. Description: Antimalarial activity against synchronized-ring stage chloroquine-sensitive Plasmodium falciparum 3D7 assessed as inhibition of parasite growth by measuring pyknotic appearance measured upto 60 hrs by Giemsa staining based light microscopic analysis. In kind it is functional, organism-based.
A short description of series [14]: Toxicity in mouse assessed as cell necrosis in spleen at 100 to 200 mg/kg measured after 7 days by hematoxylin and eosin staining based analysis. Particulars: in vivo, 168 h, dose 100-200 mg/kg, time 7 day. In kind it is organism-based.
Series [15] can be described thus: Toxicity in mouse assessed as latency time to the central area at 200 mg/kg by open field test (reference value: 106.48 +/- 43.19 sec). The note with it: in vivo, 43 s. In kind it is organism-based.
For series [16], the system named is Plasmodium berghei. Description: Antimalarial activity against Plasmodium berghei ANKA infected in female BALB/c mouse assessed as reduction in parasitemia at 50 to 100 mg/kg, ip administered daily for 7 days by Giemsa staining based light microscopy. In kind it is functional, organism-based. Particulars: dose 50-100 mg/kg, time 7.0 day.
The test system of series [17] is Plasmodium falciparum. Description: Antimalarial activity against synchronized-schizont stage chloroquine-sensitive Plasmodium falciparum 3D7 assessed as delay in progression measured upto 60 hrs by Giemsa staining based light microscopic analysis. Type of series: functional, organism-based.
Series [18] in a line: Metabolic stability in human liver S9 fraction assessed as intrinsic clearance at 2 uM measured 90 mins by LC-MS/MS analysis. Type of series: ADME, subcellular. The note with it: read-out: CLH.
Series [19] can be described thus: Toxicity in mouse assessed as total distance travelled at 100 mg/kg measured over 5 mins by open field arena test (reference value: 12.45 +/- 1.48 meter). Type of series: organism-based. Particulars: in vivo.
The test system of series [20] is Plasmodium berghei. The series can be described thus: Antimalarial activity against Plasmodium berghei ANKA infected in female BALB/c mouse assessed as reduction in parasitemia at 100 mg/kg, ip measured on day 4 post infection by Giemsa staining based light microscopy (Rvb >17 %). In kind it is functional. The arrangement: scale not given: the % may be the effect or the level left.

In series [21] the test system is Plasmodium falciparum. The series can be described thus: Antimalarial activity against synchronized-ring stage chloroquine-sensitive Plasmodium falciparum 3D7 assessed as growth progression defect from ring to schizont stage measured upto 60 hrs post-treatment by Giemsa staining based light microscopic analysis. Type of series: functional, organism-based.
Series [22] relates to Plasmodium berghei. The series can be described thus: Antimalarial activity against Plasmodium berghei ANKA infected in BALB/c mouse assessed as clearance of gametocytes at 50 to 100 mg/kg, ip p preadministered with phenylhydrazine for 3 days followed by compound administration and measured after 5 days by Giemsa staining based light microscopic analysis relative to control. In kind it is functional, organism-based. Particulars: dose 50-100 mg/kg, time 5.0 day.

The nature of series [23]: Toxicity in mouse assessed as cell apoptosis in spleen at 100 to 200 mg/kg measured after 7 days by hematoxylin and eosin staining based analysis. In kind it is organism-based. Particulars: in vivo, 168 h, dose 100-200 mg/kg, time 7 day.

On to `O=C(Cn1cc(CN2CCN(c3ccnc4cc(Cl)ccc34)CC2)nn1)Nc1cccc([N+](=O)[O-])c1`, for which the Activity in series [1] is recorded as 1.03%; in series [14], “Non-Toxic”; in [19], 11.53 m; in [20], 100%; in series [23], “Non-Toxic”. The IC50 in series [2] is 3.09 µM; in series [4], 8.1 µM; in [7], 148 µM; in series [9], 1.96 µM. Besides, the Stability entry in series [3] was “Stable”. Besides, the Kd in [5] is 14 µM. For the same compound, the Survival entry in series [6] is on record as “<=30 day”. For the same compound, the outcome in series [8], in series [10], in series [11], in series [13], in series [16] and in series [17] was Active. The result in [21] and in series [22] was Active. The results for the microsomal CLint at 2 µM in series [12] and in [18] were 7.78 µL/min/mg and 13.5 µL/min/mg, respectively. Moreover, the Time in series [15] is reported as 54.39 s.
